Test results from patent US20130143804A1, “Islet Amyloid Polypeptide Toxic Oligomer is a Biomarker of Heart or Kidney Failure in Type-2 Diabetes Mellitus” (Trustees of the University of Pennsylvania, priority 2010, published 2013).
“Also recorded” adds a separate entry of the source.

Legend:
[1] = test system: rat cardiac myocytes; assay: Ca2+ transients in isolated rat cardiac myocytes incubated with exogenous IAPP, field stimulation; assay type: cell-based
Protocol: FIG. 8 illustrates that exogenous IAPP oligomers increase Ca^2+ transient amplitude in isolated rat cardiac myocytes.(A) Representative experiments in a control (top panel) myocyte and a cell pre-incubated with 50 μM hIAPP (bottom panel). (B-C) Effect of rat (B) and human (C) IAPP on Ca^2+ transient amplitude. […] For each group, measurements were done on ≧6 myocytes from 3 different rats.
Rat cardiac myocytes were incubated with exogenous human (amyloidogenic) and rat (non-amyloidogenic) IAPP and measured Ca2+ transients produced by field-stimulation at various frequencies (FIG. 8A).
(§1) Oligomerization of Aβ peptides is associated with Alzheimer's disease, and Aβ and IAPP have the same molecular weight sizes and are about 40% identical at the amino acid level.

[2] = Oligomer formation controls, dot blot with A-11 oligomer-specific antibody; assay type: physicochemical; settings: 50 μM recombinant protein incubated at room temperature for 24 hours
Text: Dot blots with the A-11 antibody, which is specific for toxic oligomers, show the presence of toxic oligomers amyloidogenic entities within the heart in patients with overweight/obesity (OW/OB) and diabetes (DM) (FIG. 4). Non-failing (NF) hearts from lean (L), L-NF group (control), lack toxic oligomers. The percentage of strong A-11 immunoreactivity signals (darker dots) is somewhat larger in hearts from the patients with diabetes, which also correlates with the western blot analysis indicating rich accumulation of IAPP entities with molecular weights greater than ˜16 kDa in these hearts. Apparently, IAPP oligomers are equally present in both ischemic (ICM) and non-ischemic (DCM) hearts (FIG. 4). […] Dots on the upper, right side corner show positive (human IAPP) and negative (rat IAPP) controls for oligomer formation (50 μM recombinant protein incubated at room temperature for 24 hours) (FIG. 4). Before the test with A-11 antibody, all protein homogenate samples were incubated with Protein A-coated magnetic beads to extract IgG, a possible source of cross-reactivity.

[3] = test system: isolated rat cardiac myocytes; settings: external human IAPP; Bell et al. 1995; cited from earlier work
[4] = test system: isolated rat cardiac myocytes; assay: Calcein leak from isolated rat cardiac myocytes incubated with IAPP oligomers; assay type: cell-based; settings: incubation for 36 hours
Text: (§2) The level of brain natriuretic peptide (BNP), a molecular marker of hypertrophy, is elevated (by 100±30%) in hearts from pre-diabetic HIP rats vs. age-matched control littermates and further increased with diabetes development (FIG. 12B). […] In contrast, the BNP level is not altered in pre-diabetic UCD-T2DM rats and only increases after the full development of diabetes (FIG. 12B). […] This may indicate that possible pores created in the sarcolemma may be smaller in size than the calcein molecule or significant sarcolemmal damage may require a longer time of incubation.

[5] = test system: sarcolemma of cardiac myocytes; assay: Atomic force microscopy of sarcolemma defect depths on cardiac myocytes; assay type: cell-based; settings: cardiac myocytes incubated with IAPP oligomers
Text: FIG. 16 illustrates distribution of sarcolemma defect depths derived from AFM data.
as §1

[6] = test system: sarcolemma in cardiac myocytes; assay: Cryo-electron microscopy of cardiac myocytes incubated with IAPP oligomers; assay type: cell-based; settings: 50 μM IAPP oligomers for 36 hours
Protocol: FIG. 13 illustrates EM images of cardiac myocytes. Control (A-B) vs. incubated with 50 μM IAPP oligomers for 36 hours (C-H).
as §2

[7] = 50 μM IAPP, all stimulation frequencies

Substance | Ca2+ transient amplitude ([1]; 5 μM IAPP, monomeric form) | Ca2+ transient amplitude [1, 7] | Ca2+ transient amplitude ([1]; 50 μM IAPP, all stimulation frequencies, listed as Human IAPP) | oligomer formation (A-11 dot blot control) [2] | hypertrophy induction [3] | calcein leak from the cytoplasm [4] | sarcolemma thinning (density of thin patches, AFM) [5] | structural modification of the sarcolemma (EM) [6]
human IAPP: human islet amyloid polypeptide, amyloidogenic, SEQ ID NO: 1 KCNTATCATQRLANFLVHSSNNFGAILSSTNVGSNTY (KCNTATCATQLANFLVHSSNNFGAILSSTNVGSNTY; listed as Homo sapiens) | modest increase | marked rise | significantly increased | positive | induces hyperthrophy | – | – | –
rat IAPP: rat islet amyloid polypeptide, non-amyloidogenic, SEQ ID NO: 2 KCNTATCATQRLANFLVRSSNNLGPVLPPTNVGSNTY (KCNTATCATQLANFLVRSSNNLGPVLPPTNVGSNTY; listed as Mus musculus) | modest increase | modest, not significant effect; also recorded: no further effect | – | negative | – | – | – | –
IAPP oligomers: exogenous oligomers that human IAPP rapidly forms at 50 μM (KCNTATCATQLANFLVHSSNNFGAILSSTNVGSNTY) | – | – | – | – | – | does not reveal release of calcein; also recorded: does not induce significant calcein leak | induce sarcolemma thinning; also recorded: Density of thin sarcolemma patches is higher | significant structural modification of the sarcolemma
